Values joined by “and” are separate entries in the source; they are usually repeats but may differ in a detail not shown here. Equal entries are not always repeated. Inconclusive results and toxic doses are left out. The calls were made as follows: active = survival T/C of 150% or more; inactive = T/C below 125% in these data.
Tested on: BDF1 mice, P388 leukemia ip, median survival T/C
Experiment: NCI In Vivo Anticancer Drug Screen. Data for tumor model P388 Leukemia (intraperitoneal) in B6D2F1 (BDF1) mice
Conditions: endpoint: median survival time, higher = longer survival
Method in brief: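 Antitumour effect was judged in vivo: survival in drug-treated mice, normalised to that of vehicle-dosed controls, gives the reported T/C.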

[1] = dose: 25.0 mg/kg/injection, schedule: Q01DX009 (ip), vehicle: Klucel (hydroxypropylcellulose) (HPC)
[2] = dose: 50.0 mg/kg/injection, schedule: Q01DX009 (ip), vehicle: Klucel (hydroxypropylcellulose) (HPC)
[3] = dose: 50.0 mg/kg/injection, schedule: Q04DX003 (ip), vehicle: saline with Tween-80
[4] = dose: 100.0 mg/kg/injection, schedule: Q01DX009 (ip), vehicle: Klucel (hydroxypropylcellulose) (HPC)
[5] = dose: 100.0 mg/kg/injection, schedule: Q04DX003 (ip), vehicle: saline with Tween-80
[6] = dose: 200.0 mg/kg/injection, schedule: Q04DX003 (ip), vehicle: saline with Tween-80
[7] = dose: 400.0 mg/kg/injection, schedule: Q04DX003 (ip), vehicle: saline with Tween-80
[8] = dose: 25.0 mg/kg/injection, schedule: Q01DX009 (ip), vehicle: saline with Tween-80
[9] = dose: 50.0 mg/kg/injection, schedule: Q01DX009 (ip), vehicle: saline with Tween-80
[10] = dose: 100.0 mg/kg/injection, schedule: Q01DX009 (ip), vehicle: saline with Tween-80

Measured: T/C

Nc1[nH]c(=O)nc2nc[nH]c12
inactive: dose: 25.0 mg/kg/injection, schedule: Q01DX009 (ip), vehicle: saline 112 % of control | dose: 50.0 mg/kg/injection, schedule: Q01DX009 (ip), vehicle: saline 98 % of control | dose: 100.0 mg/kg/injection, schedule: Q01DX009 (ip), vehicle: saline 119 % of control

CC1(C)CC(C)(OC(=O)c2ccccc2)[N+]([O-])=N1 (stereo not drawn)
inactive: dose: 25.0 mg/kg/injection, schedule: Q01DX005 (ip), vehicle: other 108 % of control | dose: 50.0 mg/kg/injection, schedule: Q01DX005 (ip), vehicle: other 117 % of control | dose: 100.0 mg/kg/injection, schedule: Q01DX005 (ip), vehicle: other 99 % of control | dose: 200.0 mg/kg/injection, schedule: Q01DX005 (ip), vehicle: other 101 % of control | dose: 400.0 mg/kg/injection, schedule: Q01DX005 (ip), vehicle: other 108 % of control

[Cl][Co][Cl].[NH-]CC[NH-].[NH-]CC[NH-]
inactive: dose: 25.0 mg/kg/injection, schedule: Q04DX002 (ip), vehicle: saline 100 % of control | dose: 50.0 mg/kg/injection, schedule: Q04DX002 (ip), vehicle: saline 109 % of control | dose: 100.0 mg/kg/injection, schedule: Q04DX002 (ip), vehicle: saline 104 % of control and 111 % of control

N#Cc1ccccc1NN=Nc1ccccc1-c1nc(N)nc(N)n1
inactive: dose: 12.0 mg/kg/injection, schedule: Q04DX003 (ip), vehicle: saline with Tween-80 115 % of control | dose: 12.0 mg/kg/injection, schedule: Q04DX003 (ip), vehicle: saline 108 % of control | [1] 100 % of control | dose: 25.0 mg/kg/injection, schedule: Q04DX003 (ip), vehicle: Klucel (hydroxypropylcellulose) (HPC) 104 % of control | dose: 25.0 mg/kg/injection, schedule: Q04DX003 (ip), vehicle: saline with Tween-80 105 % of control | dose: 25.0 mg/kg/injection, schedule: Q04DX003 (ip), vehicle: saline 112 % of control | dose: 35.0 mg/kg/injection, schedule: Q01DX009 (ip), vehicle: Klucel (hydroxypropylcellulose) (HPC) 100 % of control | dose: 35.0 mg/kg/injection, schedule: Q04DX003 (ip), vehicle: Klucel (hydroxypropylcellulose) (HPC) 95 % of control | [2] 90 % of control | dose: 50.0 mg/kg/injection, schedule: Q04DX003 (ip), vehicle: Klucel (hydroxypropylcellulose) (HPC) 104 % of control | [3] 115 % of control | dose: 50.0 mg/kg/injection, schedule: Q04DX003 (ip), vehicle: saline 116 % of control | dose: 75.0 mg/kg/injection, schedule: Q01DX009 (ip), vehicle: Klucel (hydroxypropylcellulose) (HPC) 90 % of control and 95 % of control | dose: 75.0 mg/kg/injection, schedule: Q04DX003 (ip), vehicle: Klucel (hydroxypropylcellulose) (HPC) 95 % of control | [4] 122 % of control

O=C(Nc1cc(C(F)(F)F)ccc1Cl)c1ccccc1Cl
inactive: [5] 100 % of control | [6] 104 % of control | [7] 113 % of control

C[C@]12C=CC(=O)C=C1CC[C@@H]1[C@@H]2[C@@H](O)C[C@@]2(C)[C@H]1CC[C@]2(O)C(=O)COC(=O)CCC1CCCC1
inactive: [8] 113 % of control | [9] 109 % of control | [10] 95 % of control and 100 % of control

O=[N+]([O-])c1cc([N+](=O)[O-])c2nn(-c3ccccc3)[n+]([O-])c2c1
inactive: [1] 100 % of control | [2] 100 % of control | [4] 90 % of control | dose: 100.0 mg/kg/injection, schedule: Q04DX003 (ip), vehicle: Klucel (hydroxypropylcellulose) (HPC) 95 % of control | dose: 200.0 mg/kg/injection, schedule: Q04DX003 (ip), vehicle: Klucel (hydroxypropylcellulose) (HPC) 100 % of control | dose: 400.0 mg/kg/injection, schedule: Q04DX003 (ip), vehicle: Klucel (hydroxypropylcellulose) (HPC) 100 % of control

Cc1ccccc1P(=O)(c1ccccc1)c1ccccc1C
inactive: [8] 90 % of control | [9] 96 % of control | [10] 87 % of control

COc1cc(/C=C2\SC(=S)N(CCCN3CCOCC3)C2=O)ccc1O
inactive: dose: 12.5 mg/kg/injection, schedule: Q01DX009 (ip), vehicle: suspension in saline 86 % of control | dose: 25.0 mg/kg/injection, schedule: Q01DX009 (ip), vehicle: suspension in saline 101 % of control | dose: 50.0 mg/kg/injection, schedule: Q01DX009 (ip), vehicle: suspension in saline 99 % of control

NC(=O)c1cc(Cl)nc2nc(Cl)nc(N)c12
inactive: [3] 105 % of control | [5] 104 % of control and 109 % of control | [6] 116 % of control and 117 % of control | [7] 116 % of control and 122 % of control

— PubChem BioAssay AID328 (DTP/NCI, 2004)
